{
  "source": "patent US20060019954A1",
  "about": "“Method for reducing the likelihood of the occurrence of cardiac arrhythmias” (Cedars-Sinai Medical Center, priority 2004, published 2006)",
  "tested_on": "SCD canine subjects (myocardial infarction, complete AV block, NGF to left stellate ganglion)",
  "test": "Effect of BRL 37344 infusion in the canine sudden cardiac death (SCD) model",
  "assay_type": "in vivo",
  "excerpt": "The canine SCD model is created by inducing myocardial hyperinnervation within the left stellate ganglion in combination with creating a complete atrioventricular (AV) block and inducing a relatively mild myocardial infarction (MI). The AV block is typically created by ablating the AV node of the heart using an ablation catheter and the MI is induced by ligating the left anterior descending portion of the coronary artery. Myocardial hyperinnervation is stimulated by application of nerve growth factor (NGF) or other neurtrophic vectors to the left stellate ganglion. Alternatively, electrical stimulation signals may be applied to the left stellate ganglion.\nFour canine groups were evaluated in this study. MI was created in each of the canine subjects by ligating the left anterior descending coronary artery. Complete AV block was created by radiofrequency ablation of the atrioventricular junction in the MI, SCD and RSG Groups. An ICD was used to monitor for the occurrence of ventricular arrhythmias. Nerve growth factor (NGF) was infused by an osmotic pump throughout a 4-5 week period in the left stellate ganglion (LSG) of the canine subjects in the SCD Group and in the right stellate ganglion (RSG) of the canine subjects in the RSG Group. The canine subjects in the SCD Group was characterized by a high incidence of SCD (44%), long QTc intervals and frequent episodes of ventricular tachycardia, whereas the RSG Group had no SCD, short QTc intervals and few episodes of VT.\nTwo canine groups were studied and compared to ascertain the effect of a β3 adrenergic receptor agonist (BRL 37344) on the incidence of phase-2 VT, typically leading to sudden cardiac death. Table 4 compares the incidence of phase-2 VT, QTc intervals and the size of myocardial infarction (“MI”) of SCD canine subjects and SCD canine subjects receiving BRL 37344 infusion.\nβ3 adrenergic receptor agonist BRL 37344 was infused subcutaneously by an osmotic pump (2 μg/kg/hr) for two weeks in two canine subjects with myocardial infarction, complete atrioventricular block and nerve growth factor to the left stellate ganglion (BRL Group). Surface ECG was continuously recorded by Data Sciences International (DSI) and analyzed manually.",
  "data": [
    {"smiles": "C[C@H](Cc1ccc(OCC(=O)O)cc1)NC[C@H](O)c1cccc(Cl)c1", "note": "[BRL 37344]", "values": [
      {"measurement": "Effect on incidence of ventricular arrhythmias", "setting": "2 μg/kg/hr by osmotic pump for a two week period, mammalian SCD models", "value": "effective in significantly reducing the incidence of ventricular arrhythmias"},
      {"measurement": "Incidence of Phase-2 VT", "setting": "SCD canine subjects, BRL 37344 2 μg/kg/hr subcutaneous by osmotic pump for two weeks, n=2, SCD Group without infusion 2.0 ± 2.0 per day", "value": "0.08±0.11", "unit": "per day"},
      {"measurement": "QTc Interval", "setting": "SCD canine subjects, BRL 37344 2 μg/kg/hr subcutaneous infusion, throughout follow-up, SCD Group without infusion 400 ms", "value": 350, "unit": "ms"},
      {"measurement": "Size of MI", "setting": "SCD canine subjects, BRL 37344 2 μg/kg/hr subcutaneous infusion, SCD Group without infusion 17 ± 4%", "value": "16±1.2", "unit": "%"},
      {"measurement": "Phase-2 VT episodes, first canine subject of the BRL Group", "setting": "short runs of VT episodes observed from day 36 to day 44 after surgery", "value": "no phase-2 VT for five weeks"},
      {"measurement": "Occurrence of sudden cardiac death during follow-up", "setting": "two canine subjects of the BRL Group, followed up for two months", "value": "without SCD"},
      {"measurement": "Phase-2 VT episodes, second canine subject of the BRL Group", "setting": "two months follow-up", "value": "no phase-2 VT episodes"}
    ]}
  ]
}
